# Target: T1, human recombinant mGluR5 (Homo sapiens, UniProt P41594)
# T1 construct: expressed in transfected cells; hygromycin and geneticin selection
# Experiment: positive modulation of mGluR5, calcium based FLIPR assay
# Settings: HEK 293 cell line expressing human recombinant mGluR5; Ca2+ peak height after glutamate at approximately 5% basal stimulation; nonlinear regression
# In short: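 HEK293 cells with tetracycline-free induction, Calcium-4 dye-loaded in Ringer pH 7.4. Compound added 5 min before glutamate at ~5% of maximal effect, 1% DMSO. EC50 from peak Ca2+ fluorescence, normalized to basal glutamate (100%) and 10 μM CDPPB (200%), via nonlinear regression.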
# T1 sequence (P41594 21-1212): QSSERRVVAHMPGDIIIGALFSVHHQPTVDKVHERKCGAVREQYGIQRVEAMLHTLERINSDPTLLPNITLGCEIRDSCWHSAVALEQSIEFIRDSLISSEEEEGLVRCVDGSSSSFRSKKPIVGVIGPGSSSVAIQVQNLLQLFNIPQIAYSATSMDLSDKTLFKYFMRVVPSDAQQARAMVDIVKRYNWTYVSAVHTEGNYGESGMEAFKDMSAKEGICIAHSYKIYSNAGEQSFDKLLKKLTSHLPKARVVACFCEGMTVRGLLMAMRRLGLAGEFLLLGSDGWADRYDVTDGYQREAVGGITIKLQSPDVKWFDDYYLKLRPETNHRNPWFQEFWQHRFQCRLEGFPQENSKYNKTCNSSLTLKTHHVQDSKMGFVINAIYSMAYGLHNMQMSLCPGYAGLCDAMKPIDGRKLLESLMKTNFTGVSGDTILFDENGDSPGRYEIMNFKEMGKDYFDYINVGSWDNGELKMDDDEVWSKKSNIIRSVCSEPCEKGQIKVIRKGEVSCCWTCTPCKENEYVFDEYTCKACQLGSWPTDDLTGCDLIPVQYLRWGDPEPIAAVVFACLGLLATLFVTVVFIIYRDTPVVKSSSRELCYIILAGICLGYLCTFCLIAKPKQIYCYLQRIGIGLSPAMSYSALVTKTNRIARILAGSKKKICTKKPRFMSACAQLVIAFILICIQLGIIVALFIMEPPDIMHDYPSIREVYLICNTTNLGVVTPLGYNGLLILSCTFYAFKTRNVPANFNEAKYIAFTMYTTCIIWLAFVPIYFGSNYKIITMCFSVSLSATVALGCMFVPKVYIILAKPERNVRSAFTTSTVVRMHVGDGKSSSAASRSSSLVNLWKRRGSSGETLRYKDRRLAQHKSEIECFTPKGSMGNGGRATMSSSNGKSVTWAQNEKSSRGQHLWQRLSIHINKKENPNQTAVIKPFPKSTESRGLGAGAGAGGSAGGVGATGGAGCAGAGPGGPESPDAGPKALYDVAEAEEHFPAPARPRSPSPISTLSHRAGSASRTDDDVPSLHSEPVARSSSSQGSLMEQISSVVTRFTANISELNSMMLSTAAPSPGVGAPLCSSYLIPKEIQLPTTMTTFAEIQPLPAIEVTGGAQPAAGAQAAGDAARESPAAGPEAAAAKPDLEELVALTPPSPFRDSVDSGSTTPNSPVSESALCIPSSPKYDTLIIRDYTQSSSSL
row,Compound,EC50 [nM]
1,CC1(C)CN(C(=O)c2cncc(C(F)(F)F)n2)CCN1C(=O)c1ncn(-c2cccc(Cl)c2)n1 [Example 49],222
2,CC1CN(C(=O)c2ncn(-c3cccc(F)c3)n2)CCN1C(=O)c1cc(Cl)c2c(c1)OCCO2 (stereo not shown) [Example 234],301
3,Cc1c(C(=O)N2CCN(C(=O)c3ncn(-c4cccc(Cl)c4)n3)C(C)C2)oc2ccccc12 (stereo not shown) [Example 279],530
4,CC(=O)c1cccc(C(=O)N2CCN(C(=O)c3ncn(-c4ccccc4)n3)C(C)(C)C2)n1 [Example 124],145
5,COc1cccc(C(=O)N2CCN(C(=O)c3nnn(-c4ccc(F)cc4)n3)C(C)(C)C2)n1 [Example 200],132
6,O=C(c1cc(Br)c(Br)o1)N1CCN(C(=O)c2ncn(-c3cccc(F)c3)n2)C2(CC2)C1 [Example 305],503
7,COc1cccc(C(=O)N2CCN(C(=O)c3ncn(-c4ccccc4)n3)CC2C)n1 (stereo not shown) [Example 247],373
8,COc1cc(Br)cc(C(=O)N2CCN(C(=O)c3ncn(-c4cccc(Cl)c4)n3)C(C)(C)C2)n1 [Example 12],19
9,Cc1c(C(=O)N2CCN(C(=O)c3ncn(-c4ccccc4)n3)C(C)(C)C2)n(C)c2ccccc12 [Example 110],142
10,"COc1cccc(C(=O)N2C[C@@H](C)N(C(=O)c3ncn(-c4cccc(C)c4)n3)[C@@H](C)C2)n1 [Example 302, (2R*,6S*)-4-[(6-methoxypyridin-2-yl)carbonyl]-2,6-dimethyl-1-{[1-(3-methylphenyl)-1H-1,2,4-triazol-3-yl]carbonyl}piperazine]",166
11,Cc1c(C(=O)N2CCN(C(=O)c3ncn(-c4cccc(Cl)c4)n3)C[C@H]2C)oc2ccc(F)cc12 [Example 250],371
12,COc1ccc2oc(C)c(C(=O)N3CCN(C(=O)c4ncn(-c5cccc(C)c5)n4)CC3C)c2c1 (stereo not shown) [Example 237],174
13,Cc1oc2ccccc2c1C(=O)N1CCN(C(=O)c2ncn(-c3cccc(F)c3)n2)C(C)(C)C1 [Example 5],131
14,COc1cccc(C(=O)N2CCN(C(=O)c3ncn(-c4cccc(Br)c4)n3)C(C)C2)n1 (stereo not shown) [Example 299],376
15,CC1(C)CN(C(=O)c2cccc(C3CCC3)c2)CCN1C(=O)c1ncn(-c2ccccc2)n1 [Example 151],16
16,COc1cccc(C(=O)N2CCN(C(=O)c3nnn(-c4cccc(C)c4)n3)C(C)(C)C2)n1 [Example 198],123
17,COc1ccc2oc(C)c(C(=O)N3CCN(C(=O)c4ncn(-c5ccccc5)n4)C(C)C3)c2c1 (stereo not shown) [Example 291],47
18,CC1(C)CN(C(=O)c2cc3ccccc3c(OC3CCCC3)n2)CCN1C(=O)c1ncn(-c2ccccc2)n1 [Example 115],158
19,CC1CN(C(=O)c2cccc(-c3nccs3)c2)CCN1C(=O)c1ncn(-c2cccc(Cl)c2)n1 (stereo not shown) [Example 270],677

row,Compound,EC50 [nM]
1,COCc1c(C(=O)N2CCN(C(=O)c3ncn(-c4cccc(Cl)c4)n3)C(C)C2)oc2ccccc12 (stereo not shown) [Example 274],810
2,Cc1c(C(=O)N2CCN(C(=O)c3ncn(-c4cccc(F)c4)n3)C(C)(C)C2)n(C)c2ccccc12 [Example 6],197
3,COCc1c(C(=O)N2CCN(C(=O)c3ncn(-c4ccccc4)n3)C(C)(C)C2)oc2ccccc12 [Example 107],108
4,CC1(C)CN(C(=O)c2ccc(F)c(Cl)c2)CCN1C(=O)c1ncn(-c2ccccc2)n1 [Example 149],353
5,"CC1(C)CN(C(=O)c2cccc(Cl)c2)CCN1C(=O)c1ncn(-c2cccc(Cl)c2)n1 [Example 173, [4-(3-Chloro-benzoyl)-2,2-dimethyl-piperazin-1-yl]-[1-(3-chloro-phenyl)-1H-[1,2,4]triazol-3-yl]-methanone]",19
6,CC(C)Oc1cccc(C(=O)N2CCN(C(=O)c3ncn(-c4ccccc4)n3)C(C)(C)C2)c1 [Example 126],91
7,Cc1cccc(-n2cnc(C(=O)N3C[C@@H](C)N(C(=O)c4oc5ccc(Cl)cc5c4C)[C@@H](C)C3)n2)c1 [Example 264],891
8,CC1(C)CN(C(=O)c2cccc(-c3ccc(C#N)cc3)c2)CCN1C(=O)c1ncn(-c2cccc(Cl)c2)n1 [Example 78],146
9,Cc1c(C(=O)N2CCN(C(=O)c3ncn(-c4cccc(Cl)c4)n3)CC2C)oc2ccc(F)cc12 (stereo not shown) [Example 212],568
10,COc1cc(Cl)cc(C(=O)N2CCN(C(=O)c3ncn(-c4ccccc4)n3)C(C)(C)C2)c1 [Example 121],123
11,Cc1cccc(-n2cnc(C(=O)N3CCN(C(=O)c4cc(Cl)c5c(c4)OCCO5)C(C)C3)n2)c1 (stereo not shown) [Example 239],326
12,CC1(C)CN(C(=O)c2cccc(C3CC3)n2)CCN1C(=O)c1ncn(-c2cccc(Cl)c2)n1 [Example 16],41
13,CC(C#N)c1cccc(C(=O)N2CCN(C(=O)c3ncn(-c4cccc(Cl)c4)n3)C(C)(C)C2)c1 (stereo not shown) [Example 75],419
14,CC1(C)CN(C(=O)c2cc(Cl)c3c(c2)OCCO3)CCN1C(=O)c1nnn(-c2cccc(F)c2)n1 [Example 170],37
15,CC1(C)CN(C(=O)c2cccc(-c3nccs3)c2)CCN1C(=O)c1ncn(-c2cccc(Cl)c2)n1 [Example 26],72
16,"COc1cccc(C(=O)N2CCN(C(=O)c3ncn(-c4cccc(Cl)c4)n3)CC2(C)C)n1 [Example 257, {4-[1-(3-Chloro-phenyl)-1H-[1,2,4]triazole-3-carbonyl]-2,2-dimethyl-piperazin-1-yl}-(6-methoxy-pyridin-2-yl)-methanone]",1100
17,"Cn1c(CC2CCCC2)nc2ccc(C(=O)N3CCN(C(=O)c4ncn(-c5ccccc5)n4)C(C)(C)C3)cc21 [Example 179, [4-(2-cyclopentylmethyl-3-methyl-3H-benzoimidazole-5-carbonyl)-2,2-dimethyl-piperazin-1-yl]-(1-phenyl-1H-[1,2,4]-triazol-3-yl)-methanone]",153
18,Cc1ccc(C(=O)N2CCN(C(=O)c3ncn(-c4cccc(Cl)c4)n3)C(C)(C)C2)cc1Cl [Example 71],47

# — patent US8883789B2, “Piperazine derivatives and their use as positive allosteric modulators of mGluR5 receptors” (Boehringer Ingelheim International GmbH, priority 2011, dated 2014)
